The record followed here is US7314937B2, “Non-imidazole aryl alkylamines compounds as histamine H3 receptor antagonists, preparation and therapeutic uses” (Eli Lilly and Company, priority 2002, dated 2008).

The structures appear in SMILES notation. Where two headings read alike, the source gives them in different places. Bounds are passed on as bounds.

Data set [1] has as its target T1, H3R membranes (H3R8-expressing HEK293 cell line) (Homo sapiens, UniProt Q9Y5N1).
T1 construct: expressed in transfected cells; membranes
Nature of the data set: [35S]GTPγS binding assay (antagonist inhibition of agonist-stimulated binding). It is filed as biochemical. To be noted: inhibition of [35S]GTPγS binding to H3R membranes in presence of agonist R(-) alpha methylhistamine. The protocol: Membranes isolated as described in Example 3 were used in a [^35S]GTPχS functional assay. Binding of [^35S]GTPχS to membranes indicates agonist activity. Compounds of the invention of Formula I were tested for their ability to inhibit binding in the presence of agonists. Alternately, the same transfected cell lines were used for a cAMP assay wherein H3R agonists inhibited forskolin-activated synthesis of cAMP. Compounds of Formula I were tested for their ability to permit forskolin-stimulated cAMP synthesis in the presence of agonist.
cDNA for the human histamine 3 receptor was cloned and expressed as described in Example 1, above. Transfected cells were selected using G418 (500 μ/ml), grown, and tested for histamine binding by the SPA described above. For total binding, cells were assayed in a SPA reaction described above containing 50 mM Tris-HCL (assay buffer), pH 7.6, 1 mg wheat germ agglutinin SPA beads (Amersham Pharmacia Biotech, #RPNQ0001), and 1 nM (^3H)-n-alpha-methylhistamine (NEN, NET1027) (total volume per well=200 μl). Thioperimide was added to determine non-specific binding. […]
Antagonist activity of selected compounds was tested for inhibition of [^35S] […] Plates were counted in Wallac Trilux 1450 Microbeta scintillation counter for 1 minute. […]
For orientation: Binding of GTPγS marks nucleotide exchange on a G protein.

Data set [2] is described as follows: Rat pharmacokinetics, iv and po, LC/MS/MS. It is filed as in vivo, Male Sprague Dawley Rats. The conditions noted are these: 10 mg/kg po; for oral bioavailability (AUC 0-24 hr; po/iv ratio): 3 mg/kg iv; for half-life: male, Sprague Dawley, read-out: oral half-life (±SEM) (converted). The protocol:
Non-imidazole containing histamine H3 receptor antagonists disclosed in the literature generally have very poor pharmacokinetic properties (see J. Apelt, et al, J. Med. Chem. 2002,45,1128-1141). […] Male Sprague Dawley Rats (n=3 per dose arm) were separately dosed with 3 mg/kg iv or 10 mg/kg po of compound examples 131 and 271 (vehicle: 5% ethanol/water or water respectively; dose volume: 1 mL/kg iv, 10 mL/kg po). Approximately 0.5 mL of blood was collected in heparin collection tubes at multiple time points over an 8 or 24-hour period for examples 131 and 271 respectively, and the samples were analyzed using LC/MS/MS.

Data set [3] has as its target T2, human histamine 3 receptor (H3R) (Homo sapiens, UniProt Q9Y5N1).
T2 construct: expressed in transfected cells; membranes
Kind of data set: Competitive inhibition SPA radioligand binding assay, H3R. From the text: The inventive compounds can readily be evaluated by using a competitive inhibition Scintillation Proximity Assay (SPA) based on a H3R binding assay using [3H] a methylhistamine as ligand. Stable cell lines, including but not limited to HEK can be transfected with cDNA coding for H3R to prepare membranes used for the binding assay. The technique is illustrated below (Example 3) for the histamine receptor subtypes.
C. Preparation of H3R Membranes
cDNA for the human histamine 3 receptor was cloned and expressed as described in Example 1, above. Transfected cells were selected using G418 ([…]), grown, and tested for histamine binding by the SPA described above. For total binding, cells were assayed in a SPA reaction described above containing 50 mM Tris-HCL (assay buffer), pH 7.6, 1 mg wheat germ agglutinin SPA beads (Amersham Pharmacia Biotech, #RPNQ0001), and 1 nM (^3H)-n-alpha-methylhistamine (NEN, NET1027) (total volume per well=200 μl). Thioperimide was added to determine non-specific binding. Several clones were selected as positive for binding, and a single clone (H3R8) was used to prepare membranes for binding studies described above. Five micrograms of protein was used per well in the SPA receptor-binding assay.
To investigate the selectivity of the antagonists for the histamine receptors, a competitive binding assay described above was performed. […]

Data set [4] concerns the target T3, human GPRv53 receptor (H4R) (Homo sapiens, UniProt Q9H3N8).
T3 construct: expressed in transfected cells; host or cells: HEK293 GPRv53 50 cells; homogenised whole-cell lysates
Nature of the data set: Competitive binding assay, GPRv53 (H4R), [3H]histamine. To be noted: for inhibition of binding to H4R compared to H3R: in words; for Ki: selectivity study Table 2. The procedure: D. Preparation of GPRv53 Membranes
cDNA for the human GPRv53 receptor was cloned and expressed as described in Example 1, above. Transfected cells were selected, tested for histamine binding, and selected. HEK293 GPRv53 50 cells were grown to confluency in DMEM/F12 (Gibco) supplemented with 5% FBS and 500 ug/ml G418 and washed with Delbecco's PBS (Gibco) and harvested by scraping. Whole cells were homogenized with a Polytron tissuemizer in binding buffer, 50 mM Tris pH 7.5. Cell lysates, 50 ug, were incubated in 96 well dishes with 3 nM (3H) Histamine and compounds in binding buffer for 2 hours at room temperature. Lysates were filtered through glass fiber filters (Perkin Elmer) with a Tomtec cell harverster. Filters were counted with melt-on scintillator sheets (Perkin Elmer) in a Wallac Trilux 1450 Microbeta Scintillation counter for 5 minutes.
(§1) To investigate the selectivity of the antagonists for the histamine receptors, a competitive binding assay described above was performed. […] Until the present invention, most known H3R antagonists also bound H4R.

Data set [5] addresses T4, human histamine 1 receptor (H1R) (Homo sapiens, UniProt P35367).
T4 construct: expressed in transfected cells; membranes
Nature of the data set: Competitive SPA binding assay, H1R, 3H-pyrilamine. The conditions noted are these: selectivity study Table 2. The protocol: A. Preparation H1R Membranes
cDNA for the human histamine 1 receptor (H1R) was cloned into a mammalian expression vector containing the CMV promoter (pcDNA3.1 (+), Invitogen) and transfected into HEK293 cells using the FuGENE Tranfection Reagent (Roche Diagnostics Corporation). Transfected cells were selected using G418 (500 μ/ml). Colonies that survived selection were grown and tested for histamine binding to cells grown in 96-well dishes using a scintillation proximity assay (SPA) based radioligand binding assay. Briefly, cells, representing individual selected clones, were grown as confluent monolayers in 96-well dishes (Costar Clear Bottom Plates, #3632) by seeding wells with 25,000 cells and growing for 48 hours (37° C., 5% CO2). Growth media was removed and wells were rinsed two times with PBS (minus Ca^2+ or Mg^2+). For total binding, cells were assayed in a SPA reaction containing 50 mM Tris-HCL (assay buffer), pH 7.6, 1 mg wheat germ agglutinin SPA beads (Amersham Pharmacia Biotech, #RPNQ0001), and 0.8 nM ^3H-pyrilamine (Net-594, NEN) (total volume per well=200 μl). Astemizole (10 μM, Sigma #A6424) was added to appropriate wells to determine non-specific binding. Plates were covered with FasCal and incubated at room temperature for 120 minutes. […] Plates were counted in a Wallac Trilux 1450 Microbeta scintillation counter. […]

Data set [6] concerns the target T5, human histamine 2 receptor (Homo sapiens, UniProt P25021).
T5 construct: expressed in transfected cells; membranes
Nature of the data set: Competitive SPA binding assay, H2R, 3H-tiotidine. The conditions noted are these: selectivity study Table 2, read-out: Ki (nM) H2. The protocol:
B. Preparation H2R Membranes
cDNA for the human histamine 2 receptor was cloned, expressed and transfected into HEK 293 cells as described above. Histamine binding to cells was assayed by SPA described above. For total binding, cells were assayed in a SPA reaction containing 50 mM Tris-HCl (assay buffer), pH 7.6, 1 mg wheat germ agglutinin SPA beads (Amersham Pharmacia Biotech, #RPNQ0001), and 6.2 nM ^3H-tiotidine (Net-688, NEN) (total volume per well=200 μl). Cimetidine (10 μM, Sigma #C4522) was added to appropriate wells to determine non-specific binding.
Several clones were selected as positive for binding, and a single clone (H2R10) was used to prepare membranes for binding studies. Five micrograms of protein was used per well in the SPA receptor-binding assay.
as §1

T3 sequence (Q9H3N8 whole entry): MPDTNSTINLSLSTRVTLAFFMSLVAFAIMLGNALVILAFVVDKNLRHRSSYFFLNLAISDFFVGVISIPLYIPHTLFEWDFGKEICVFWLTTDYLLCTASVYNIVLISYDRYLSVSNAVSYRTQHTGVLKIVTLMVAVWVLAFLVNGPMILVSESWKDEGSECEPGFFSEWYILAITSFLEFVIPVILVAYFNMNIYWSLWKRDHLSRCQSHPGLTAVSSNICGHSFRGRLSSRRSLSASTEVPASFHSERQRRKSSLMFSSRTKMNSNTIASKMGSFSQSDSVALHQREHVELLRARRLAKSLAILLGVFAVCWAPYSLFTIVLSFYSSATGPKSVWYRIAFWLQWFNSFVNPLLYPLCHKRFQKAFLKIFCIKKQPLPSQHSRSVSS
T5 sequence (P25021 whole entry): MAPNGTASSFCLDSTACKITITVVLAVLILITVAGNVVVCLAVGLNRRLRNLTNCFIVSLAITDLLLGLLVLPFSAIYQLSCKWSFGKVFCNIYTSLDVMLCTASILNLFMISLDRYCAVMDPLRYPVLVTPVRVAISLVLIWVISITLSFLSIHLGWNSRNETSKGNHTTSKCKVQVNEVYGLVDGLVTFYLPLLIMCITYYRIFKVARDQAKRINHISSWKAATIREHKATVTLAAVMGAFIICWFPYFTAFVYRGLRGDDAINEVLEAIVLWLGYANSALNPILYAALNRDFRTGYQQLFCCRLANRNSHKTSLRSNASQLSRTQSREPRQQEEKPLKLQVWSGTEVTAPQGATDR
T4 sequence (P35367 whole entry): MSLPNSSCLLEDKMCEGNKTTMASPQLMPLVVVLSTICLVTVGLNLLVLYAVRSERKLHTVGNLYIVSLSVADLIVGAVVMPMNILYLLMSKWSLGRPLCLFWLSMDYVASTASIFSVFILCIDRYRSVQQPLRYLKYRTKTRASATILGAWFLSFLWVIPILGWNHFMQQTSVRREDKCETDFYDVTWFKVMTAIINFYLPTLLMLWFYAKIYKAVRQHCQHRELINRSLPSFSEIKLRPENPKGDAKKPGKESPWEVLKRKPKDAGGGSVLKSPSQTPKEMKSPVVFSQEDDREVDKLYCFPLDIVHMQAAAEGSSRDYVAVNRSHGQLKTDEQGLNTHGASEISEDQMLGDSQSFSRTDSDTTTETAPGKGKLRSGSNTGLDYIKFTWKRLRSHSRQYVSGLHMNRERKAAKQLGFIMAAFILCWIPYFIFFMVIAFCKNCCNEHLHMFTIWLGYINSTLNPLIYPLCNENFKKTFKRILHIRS
T2 sequence (Q9Y5N1 whole entry): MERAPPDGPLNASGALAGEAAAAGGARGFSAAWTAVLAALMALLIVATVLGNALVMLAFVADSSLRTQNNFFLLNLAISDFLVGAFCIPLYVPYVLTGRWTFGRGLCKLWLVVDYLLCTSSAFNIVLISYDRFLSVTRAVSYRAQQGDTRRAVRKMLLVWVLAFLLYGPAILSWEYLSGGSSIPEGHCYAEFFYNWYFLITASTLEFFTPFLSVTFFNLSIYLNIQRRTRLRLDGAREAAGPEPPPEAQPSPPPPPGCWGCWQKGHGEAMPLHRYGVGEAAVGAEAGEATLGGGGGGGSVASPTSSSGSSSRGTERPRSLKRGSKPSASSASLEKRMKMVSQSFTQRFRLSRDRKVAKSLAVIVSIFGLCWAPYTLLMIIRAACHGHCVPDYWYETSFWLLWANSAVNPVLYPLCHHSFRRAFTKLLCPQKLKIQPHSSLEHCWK
T1 sequence (Q9Y5N1 whole entry): as above

Consider `CCN(CC)CCCOc1ccc(C(C)N(C)CCN(C)C)cc1` (stereo not drawn) [Example 1], for which, in data set [1], the inhibitory constant (Ki) (as a rule, the equilibrium dissociation constant of an inhibitor or competing ligand from its target) worked out at 1.4 nM.
Take `CCN1CCc2ccc(OCCCN3CCCCC3)cc2C1.Cl.Cl` [Example 271, 2-Ethyl-7-(3-Piperidin-1-yl-propoxy)-1,2,3,4-tetrahydro-isoquinoline dihydrochloride]: the “oral bioavailability (AUC 0-24 hr; po/iv ratio)” value in data set [2] was 69%. Also, the half-life (commonly the time needed for the level to fall by half in the phase considered) in data set [2] (in vivo) was 71.9 ± 3.3 h.
In the case of `O=C(c1ccc(OCCN2CCCCC2)cc1)N1CCC[C@H]1CN1CCCC1` [Example 131], the Ki was 1.05 nM in data set [3] (competitive binding, selectivity study Table 2, read-out: Ki (nM) H3R); at least 20000 nM in data set [4]; at least 20000 nM in data set [5]; at least 20000 nM in data set [6]. Further, in data set [4], the “inhibition of binding to H4R compared to H3R” value is reported as “did not inhibit binding H4R”. Further, in data set [2], the “oral bioavailability (AUC 0-24 hr; po/iv ratio)” value was 58%. Moreover, the half-life in data set [2] (blood) was 10.4 ± 4.2 h.
For the compound `CCN1CCc2cc(OCCCN3CCCCC3)ccc2C1.Cl.Cl` [Example 250, 2-Ethyl-6-(3-piperidin-1-yl-propoxy)-1,2,3,4-tetrahydro-isoquinoline dihydrochloride], the Ki in data set [3] was 0.37 nM; in data set [4], at least 20000 nM; in data set [5], 1020 nM; in data set [6] it was 1110 nM. Besides, the “inhibition of binding to H4R compared to H3R” value in data set [4] is on record as “did not inhibit binding H4R”.
